US10398751B2, “Pharmaceutical compositions of water soluble peptides with poor solubility in isotonic conditions and methods for their use” (STRONGBRIDGE IRELAND LIMITED, priority 2016, dated 2019)
Structures can show the parent of a compound that is named as a salt. Where two headings read alike, the source gives them in different places.

Assay: Solubility screening of veldoreotide acetate (10 mg, incremental volumes of medium, USP definition)
Type: physicochemical
Description: The solubility of veldoreotide acetate in aqueous media was screened by the following method. A fixed amount of 10 milligrams of the peptide was weighed and dissolved at ambient temperature by increased (incremental) volumes of the tested medium until a complete solubility was observed, i.e, clear/transparent solution and absence of any precipitates (the solubility endpoint values were defined according to USP guidance). Following the results of the screening studies, several media were selected for verification studies based on quantitative assessment of the peptide concentration by HPLC (maximal solubility). The results of the screening study are depicted in Table 1 while the results of the verification studies are included in Table 2.

Question: For `C[C@@H](O)[C@@H]1NC(=O)[C@H](CCCCN)NC(=O)[C@@H](Cc2c[nH]c3ccccc23)NC(=O)[C@H](Cc2c[nH]c3ccccc23)NC(=O)[C@H](Cc2ccccc2)NC(=O)CCCNC(=O)CCCN(CC(N)=O)C(=O)[C@H](Cc2ccccc2)NC1=O` [Veldoreotide Acetate, Cyclo(-γ-aminobutyryl-L-phenylalanyl-L-tryptophanyl-D-tryptophanyl-L-lysyl-L-threonyl-L-phenylalanyl-N-carbamoylmethyl-γ-aminobutyryl), acetate salt], which “Results USP Definition” value (10 mg in 0.1% TFA) is on record?
Answer: Freely soluble

Question: And the “Results USP Definition” value (10 mg in 0.1N HCL, acetate salt)?
Answer: Soluble

Question: What about the “Results USP Definition” value (10 mg in 0.1N HCL, listed as veldoreotide acetate, acetate salt) of the same molecule?
Answer: soluble

Question: What about the “Results USP Definition” value (10 mg in 0.9N HCL, acetate salt) of the same molecule?
Answer: Insoluble

Question: And the “Results USP Definition” value (10 mg in 0.9N HCL, listed as veldoreotide acetate, acetate salt)?
Answer: insoluble

Question: What about the “Results USP Definition” value (10 mg in 2% Propylene glycol in olive oil (or cottonseed oil)) of the same molecule?
Answer: Sparingly

Question: What about the “Results USP Definition” value (10 mg in 10% EtOH (95%) in olive oil (or cottonseed oil)) of the same molecule?
Answer: Sparingly

Question: And the “Results USP Definition” value (10 mg in Acetate saline 100 mM, Mannitol 250 mM (pH 4.3))?
Answer: Slightly soluble

Question: And the “Results USP Definition” value (10 mg in Acetic acid 1% (glacial))?
Answer: Freely soluble

Question: And the “Results USP Definition” value (10 mg in Acetone (USP))?
Answer: Freely soluble

Question: What about the “Results USP Definition” value (10 mg in Caprylic acid) of the same molecule?
Answer: Soluble

Question: What about the “Results USP Definition” value (10 mg in DDW (Double distilled water)) of the same molecule?
Answer: Freely soluble

Question: What about the “Results USP Definition” value (10 mg in Dextrose 5% (USP)) of the same molecule?
Answer: Freely soluble

Question: And the “Results USP Definition” value (10 mg in Ethanol (USP))?
Answer: Freely soluble

Question: What about the “Results USP Definition” value (10 mg in Glycerol) of the same molecule?
Answer: Soluble

Question: And the “Results USP Definition” value (10 mg in Lactic acid 37 mM, Mannitol 250 mM (pH 4.3))?
Answer: Freely soluble

Question: What about the “Results USP Definition” value (10 mg in Oleic acid) of the same molecule?
Answer: Very slightly

Question: And the “Results USP Definition” value (10 mg in PBS pH 7.2)?
Answer: Very slightly

Question: And the “Results USP Definition” value (10 mg in Propylene glycol)?
Answer: Freely soluble

Question: What about the “Results USP Definition” value (10 mg in Refined vegetable oils, Olive, Cotton, Coconut, Canola) of the same molecule?
Answer: Insoluble

Question: And the “Results USP Definition” value (10 mg in Saline (USP) (0.9% NaCl) pH 4.5)?
Answer: Very slightly

Question: What about the “Results USP Definition” value (10 mg in WFI-USP (water for injection)) of the same molecule?
Answer: Soluble

Question: What about the solubility (0.1% TFA, 10 mg in 0.1% TFA, read-out: 0.01 ml Very soluble (1 g/ml)) of the same molecule?
Answer: < 1000 mg/mL

Question: What about the solubility (0.1% TFA, 10 mg in 0.1% TFA, read-out: 0.5 ml Soluble (0.02 g/ml; 20 mg/ml)) of the same molecule?
Answer: > 20 mg/mL

Question: And the solubility (0.1% TFA, 10 mg in 0.1% TFA, read-out: 1 ml Sparingly soluble (0.01 g/ml; 10 mg/ml))?
Answer: > 10 mg/mL

Question: What about the solubility (0.1% TFA, 0.1 ml Freely soluble (0.1 g/ml), 10 mg in 0.1% TFA) of the same molecule?
Answer: > 100 mg/mL

Question: And the solubility (0.1% TFA, 10 ml Slightly soluble (0.001 g/ml; 1 mg/ml), 10 mg in 0.1% TFA)?
Answer: > 1 mg/mL

Question: And the solubility (0.1N HCl, 10 mg in 0.1N HCL, read-out: 0.01 ml Very soluble (1 g/ml))?
Answer: < 1000 mg/mL

Question: And the solubility (0.1N HCl, 10 mg in 0.1N HCL, read-out: 0.5 ml Soluble (0.02 g/ml; 20 mg/ml))?
Answer: > 20 mg/mL

Question: What about the solubility (0.1N HCl, 10 mg in 0.1N HCL, read-out: 1 ml Sparingly soluble (0.01 g/ml; 10 mg/ml)) of the same molecule?
Answer: > 10 mg/mL

Question: And the solubility (0.1N HCl, 0.1 ml Freely soluble (0.1 g/ml), 10 mg in 0.1N HCL)?
Answer: > 100 mg/mL

Question: And the solubility (0.1N HCl, 10 ml Slightly soluble (0.001 g/ml; 1 mg/ml), 10 mg in 0.1N HCL)?
Answer: > 1 mg/mL

Question: What about the solubility (0.9N HCl, 10 mg in 0.9N HCL, read-out: 0.01 ml Very soluble (1 g/ml)) of the same molecule?
Answer: < 1000 mg/mL

Question: What about the solubility (0.9N HCl, 10 mg in 0.9N HCL, read-out: 0.5 ml Soluble (0.02 g/ml; 20 mg/ml)) of the same molecule?
Answer: < 20 mg/mL

Question: And the solubility (0.9N HCl, 10 mg in 0.9N HCL, read-out: 1 ml Sparingly soluble (0.01 g/ml; 10 mg/ml))?
Answer: < 10 mg/mL

Question: What about the solubility (0.9N HCl, 0.1 ml Freely soluble (0.1 g/ml), 10 mg in 0.9N HCL) of the same molecule?
Answer: < 100 mg/mL

Question: What about the solubility (0.9N HCl, 10 ml Slightly soluble (0.001 g/ml; 1 mg/ml), 10 mg in 0.9N HCL) of the same molecule?
Answer: < 1 mg/mL

Question: What about the solubility (2% propylene glycol in olive oil (or cottonseed oil), 10 mg in 2% Propylene glycol in olive oil (or cottonseed oil), read-out: 0.01 ml Very soluble (1 g/ml)) of the same molecule?
Answer: < 1000 mg/mL

Question: And the solubility (2% propylene glycol in olive oil (or cottonseed oil), 10 mg in 2% Propylene glycol in olive oil (or cottonseed oil), read-out: 0.5 ml Soluble (0.02 g/ml; 20 mg/ml))?
Answer: < 20 mg/mL

Question: And the solubility (2% propylene glycol in olive oil (or cottonseed oil), 10 mg in 2% Propylene glycol in olive oil (or cottonseed oil), read-out: 1 ml Sparingly soluble (0.01 g/ml; 10 mg/ml))?
Answer: > 10 mg/mL

Question: What about the solubility (2% propylene glycol in olive oil (or cottonseed oil), 0.1 ml Freely soluble (0.1 g/ml), 10 mg in 2% Propylene glycol in olive oil (or cottonseed oil)) of the same molecule?
Answer: < 100 mg/mL

Question: What about the solubility (2% propylene glycol in olive oil (or cottonseed oil), 10 ml Slightly soluble (0.001 g/ml; 1 mg/ml), 10 mg in 2% Propylene glycol in olive oil (or cottonseed oil)) of the same molecule?
Answer: > 1 mg/mL

Question: And the solubility (10% EtOH (95%) in olive oil (or cottonseed oil), 10 mg in 10% EtOH (95%) in olive oil (or cottonseed oil), read-out: 0.01 ml Very soluble (1 g/ml))?
Answer: < 1000 mg/mL

Question: And the solubility (10% EtOH (95%) in olive oil (or cottonseed oil), 10 mg in 10% EtOH (95%) in olive oil (or cottonseed oil), read-out: 0.5 ml Soluble (0.02 g/ml; 20 mg/ml))?
Answer: < 20 mg/mL

Question: And the solubility (10% EtOH (95%) in olive oil (or cottonseed oil), 10 mg in 10% EtOH (95%) in olive oil (or cottonseed oil), read-out: 1 ml Sparingly soluble (0.01 g/ml; 10 mg/ml))?
Answer: > 10 mg/mL

Question: What about the solubility (10% EtOH (95%) in olive oil (or cottonseed oil), 0.1 ml Freely soluble (0.1 g/ml), 10 mg in 10% EtOH (95%) in olive oil (or cottonseed oil)) of the same molecule?
Answer: < 100 mg/mL

Question: And the solubility (10% EtOH (95%) in olive oil (or cottonseed oil), 10 ml Slightly soluble (0.001 g/ml; 1 mg/ml), 10 mg in 10% EtOH (95%) in olive oil (or cottonseed oil))?
Answer: > 1 mg/mL

Question: What about the solubility (Acetate saline 100 mM, Mannitol 250 mM, pH 4.3, 10 mg in Acetate saline 100 mM, Mannitol 250 mM (pH 4.3), read-out: 0.01 ml Very soluble (1 g/ml)) of the same molecule?
Answer: < 1000 mg/mL

Question: And the solubility (Acetate saline 100 mM, Mannitol 250 mM, pH 4.3, 10 mg in Acetate saline 100 mM, Mannitol 250 mM (pH 4.3), read-out: 0.5 ml Soluble (0.02 g/ml; 20 mg/ml))?
Answer: < 20 mg/mL

Question: What about the solubility (Acetate saline 100 mM, Mannitol 250 mM, pH 4.3, 10 mg in Acetate saline 100 mM, Mannitol 250 mM (pH 4.3), read-out: 1 ml Sparingly soluble (0.01 g/ml; 10 mg/ml)) of the same molecule?
Answer: < 10 mg/mL

Question: And the solubility (Acetate saline 100 mM, Mannitol 250 mM, pH 4.3, 0.1 ml Freely soluble (0.1 g/ml), 10 mg in Acetate saline 100 mM, Mannitol 250 mM (pH 4.3))?
Answer: < 100 mg/mL

Question: What about the solubility (Acetate saline 100 mM, Mannitol 250 mM, pH 4.3, 10 ml Slightly soluble (0.001 g/ml; 1 mg/ml), 10 mg in Acetate saline 100 mM, Mannitol 250 mM (pH 4.3)) of the same molecule?
Answer: > 1 mg/mL

Question: And the solubility (Acetate saline 100 mM, Mannitol 250 mM, pH 4.3, Acetate saline 100 mM, Mannitol 250 mM (pH 4.3), read-out: Results USP Definition: solubility)?
Answer: 2 to 3 mg/mL

Question: What about the solubility (Acetic acid 1% (glacial), 10 mg in Acetic acid 1% (glacial), read-out: 0.01 ml Very soluble (1 g/ml)) of the same molecule?
Answer: < 1000 mg/mL

Question: And the solubility (Acetic acid 1% (glacial), 10 mg in Acetic acid 1% (glacial), read-out: 0.5 ml Soluble (0.02 g/ml; 20 mg/ml))?
Answer: > 20 mg/mL

Question: What about the solubility (Acetic acid 1% (glacial), 10 mg in Acetic acid 1% (glacial), read-out: 1 ml Sparingly soluble (0.01 g/ml; 10 mg/ml)) of the same molecule?
Answer: > 10 mg/mL

Question: And the solubility (Acetic acid 1% (glacial), 0.1 ml Freely soluble (0.1 g/ml), 10 mg in Acetic acid 1% (glacial))?
Answer: > 100 mg/mL

Question: And the solubility (Acetic acid 1% (glacial), 10 ml Slightly soluble (0.001 g/ml; 1 mg/ml), 10 mg in Acetic acid 1% (glacial))?
Answer: > 1 mg/mL

Question: What about the solubility (Acetone (USP), 10 mg in Acetone (USP), read-out: 0.01 ml Very soluble (1 g/ml)) of the same molecule?
Answer: < 1000 mg/mL

Question: What about the solubility (Acetone (USP), 10 mg in Acetone (USP), read-out: 0.5 ml Soluble (0.02 g/ml; 20 mg/ml)) of the same molecule?
Answer: > 20 mg/mL

Question: And the solubility (Acetone (USP), 10 mg in Acetone (USP), read-out: 1 ml Sparingly soluble (0.01 g/ml; 10 mg/ml))?
Answer: > 10 mg/mL

Question: What about the solubility (Acetone (USP), 0.1 ml Freely soluble (0.1 g/ml), 10 mg in Acetone (USP)) of the same molecule?
Answer: > 100 mg/mL
